Experimental data published in ChEMBL document CHEMBL1150488 (1993).
Converted amounts (≈) assume the structure as drawn.

Tests used:
Bacteroides fragilis [1] = assay: Tested for zone of inhibition against Bacteroides fragilis UC6513 (1 mg/mL, 80 microL/12.7 mm); assay type: functional
Clostridium perfringens [2] = assay: Tested for zone of inhibition against Clostridium perfringens UC6509; assay type: functional
Mycobacterium avium = assay: The compound (1 mg/mL, 80 microL/12.7 mm) was tested for zone of inhibition against Mycobacterium avium UC159; Tr = trace; assay type: functional, organism-based
Staphylococcus aureus [3] = assay: Tested for zone of inhibition against Staphylococcus aureus UC3665 (1 mg/mL, 80 microL/12.7 mm); assay type: functional
Staphylococcus aureus [4] = assay: Tested for zone of inhibition against Staphylococcus aureus UC6685 (1 mg/mL, 80 microL/6.5 mm); assay type: functional
[5] = tested on: Staphylococcus epidermidis; assay: Tested for zone of inhibition against Staphylococcus epidermidis UC719 (1 mg/mL, 80 microL/6.5 mm); assay type: functional
Clostridium perfringens [6] = assay: The compound (1 mg/mL, 80 microL/12.7 mm) was tested for zone of inhibition against Clostridium perfringens UC6509; assay type: functional
[7] = tested on: Parabacteroides distasonis; assay: Tested in vitro for its antibacterial activity against Bacteroides distasonis UC6518; assay type: functional
Bacteroides fragilis [8] = assay: Tested in vitro for its antibacterial activity against Bacteroides fragilis UC9370 [clindamycin 1 micro g/mL]; assay type: functional
[9] = tested on: Bacteroides thetaiotaomicron; assay: Tested in vitro for its antibacterial activity against Bacteroides thetaiotaomicron UC 9014[clindamycin 2 micro g/mL]; assay type: functional
[10] = tested on: Prevotella melaninogenica; assay: Tested in vitro for its antibacterial activity against Bacteroides melaninogenicus UC 6523; assay type: functional
Clostridium perfringens [11] = assay: Tested in vitro for its antibacterial activity against Clostridium perfringens UC6509; assay type: functional
Escherichia coli = assay: Tested in vitro for its antibacterial activity against Escherichia coli UC9379; assay type: functional
Fusobacterium nucleatum = assay: Tested in vitro for its antibacterial activity against Fusobacterium nucleatum UC6324; assay type: functional
[12] = Tested in vitro for its antibacterial activity against Peptococcus variabilis UC6320; assay type: functional
Cutibacterium acnes = assay: Tested in vitro for its antibacterial activity against Propionibacterium acnes UC6564; assay type: functional
Streptococcus pyogenes = assay: Tsted in vitro for its antibacterial activity against Streptococcus pyogenes UC152; assay type: functional
Staphylococcus aureus [13] = assay: The compound (1 mg/mL, 80 microL/6.5 mm) was tested for zone of inhibition against Staphylococcus aureus UC6685; Tr = trace; assay type: functional, organism-based
Staphylococcus aureus [14] = assay: The compound (1 mg/mL, 80 microL/6.5 mm) was tested for zone of inhibition against Staphylococcus aureus UC6685 (20H -, H: Hazy zone); assay type: functional
[15] = tested on: Staphylococcus epidermidis; assay: The compound (1 mg/mL, 80 microL/6.5 mm) was tested for zone of inhibition against Staphylococcus epidermidis UC719 (14H -, H: Hazy zone); assay type: functional
Clostridium perfringens [16] = assay: The compound (1 mg/mL, 80 microL/12.7 mm) was tested for zone of inhibition against Clostridium perfringens UC6509 (33H -, H: Hazy zone); assay type: functional
Clostridium perfringens [17] = assay: The compound (1 mg/mL, 80 microL/12.7 mm) was tested for zone of inhibition against Clostridium perfringens UC6509; Tr = trace; assay type: functional, organism-based

In the case of `CCCCCC(=O)N1C/C(=C(/C)CO)C1=O`, the Diameter of inhibition zone (Bacteroides fragilis [1]) was 27 mm, the Diameter of inhibition zone (Clostridium perfringens [2]) was 28 mm and the “Diameter of inhibition zone” value (Mycobacterium avium) was “Trace”. It also gave a Diameter of inhibition zone (Staphylococcus aureus [3]) of 0 mm, a Diameter of inhibition zone (Staphylococcus aureus [4]) of 0 mm and a Diameter of inhibition zone [5] of 0 mm.
`CCCCCC(=O)N1C/C(=C(\C)CF)C1=O` gave a Diameter of inhibition zone (Bacteroides fragilis [1]) of 88 mm, a Diameter of inhibition zone (Clostridium perfringens [2]) of 78 mm and a Diameter of inhibition zone (Staphylococcus aureus [3]) of 36 mm. It also gave a Diameter of inhibition zone (Staphylococcus aureus [4]) of 39 mm and a Diameter of inhibition zone [5] of 31 mm.
With `CCCC(=O)OC/C(C)=C1/CN(C(=O)CCC)C1=O` the Diameter of inhibition zone (Bacteroides fragilis [1]) was 21 mm, the Diameter of inhibition zone (Clostridium perfringens [2]) was 0 mm and the Diameter of inhibition zone (Staphylococcus aureus [3]) was 0 mm. It also gave a Diameter of inhibition zone (Staphylococcus aureus [4]) of 0 mm and a Diameter of inhibition zone [5] of 0 mm.
Work on `CCCC(=O)OC/C(C)=C1\CN(C(=O)CCC)C1=O` yielded a Diameter of inhibition zone (Bacteroides fragilis [1]) of 25 mm, a Diameter of inhibition zone (Clostridium perfringens [6]) of 30 mm and a Diameter of inhibition zone (Staphylococcus aureus [3]) of 0 mm. For the same compound, the Diameter of inhibition zone (Staphylococcus aureus [4]) was 0 mm and the Diameter of inhibition zone [5] was 0 mm.
With `CCCCCC(=O)OC[C@@H](C)[C@H]1CN(C(=O)CCCCC)C1=O` the MIC [7] was 256 µg/mL (≈ 787 µM), the MIC (Bacteroides fragilis [8]) was 8 µg/mL (≈ 24.6 µM) and the MIC [9] was 8 µg/mL (≈ 24.6 µM). The MIC [10] was 8 µg/mL (≈ 24.6 µM), the MIC (Clostridium perfringens [11]) was 128 µg/mL (≈ 393 µM) and the MIC (Escherichia coli) was > 160 µg/mL. For the same compound, the MIC (Fusobacterium nucleatum) was 16 µg/mL (≈ 49.2 µM), the MIC [12] was 256 µg/mL (≈ 787 µM) and the MIC (Cutibacterium acnes) was 4 µg/mL (≈ 12.3 µM). For the same compound, the MIC (Streptococcus pyogenes) was > 160 µg/mL, the Diameter of inhibition zone (Staphylococcus aureus [3]) was 31 mm and the Diameter of inhibition zone (Staphylococcus aureus [4]) was 24 mm. It also gave a Diameter of inhibition zone [5] of 8 mm.
`CCCCCC(=O)OC/C(C)=C1/CN(C(=O)CCCCC)C1=O` gave a Diameter of inhibition zone (Bacteroides fragilis [1]) of 0 mm, a Diameter of inhibition zone (Clostridium perfringens [2]) of 0 mm and a Diameter of inhibition zone (Staphylococcus aureus [3]) of 0 mm. It also gave a Diameter of inhibition zone (Staphylococcus aureus [4]) of 0 mm and a Diameter of inhibition zone [5] of 0 mm.
Work on `CCCCOC(=O)N1C/C(=C(\C)CN=[N+]=[N-])C1=O` yielded a Diameter of inhibition zone (Bacteroides fragilis [1]) of 37 mm, a Diameter of inhibition zone (Clostridium perfringens [2]) of 36 mm and a Diameter of inhibition zone (Staphylococcus aureus [3]) of 30 mm. For the same compound, the Diameter of inhibition zone (Staphylococcus aureus [4]) was 39 mm and the Diameter of inhibition zone [5] was 32 mm.
`CCCCCC(=O)N1C/C(=C(\C)Cn2nnc(C(=O)OC)c2C(=O)OC)C1=O` gave a Diameter of inhibition zone (Bacteroides fragilis [1]) of 17 mm, a Diameter of inhibition zone (Clostridium perfringens [2]) of 0 mm and a Diameter of inhibition zone (Staphylococcus aureus [3]) of 0 mm. The “Diameter of inhibition zone” value (Staphylococcus aureus [13]) was “Trace” and the Diameter of inhibition zone [5] was 0 mm.
Compound `COCCOC(=O)N1C/C(=C(\C)CN=[N+]=[N-])C1=O` has a Diameter of inhibition zone (Bacteroides fragilis [1]) of 0 mm, a Diameter of inhibition zone (Clostridium perfringens [2]) of 20 mm and a Diameter of inhibition zone (Staphylococcus aureus [3]) of 26 mm. It also gave a Diameter of inhibition zone (Staphylococcus aureus [14]) of 20 mm and a Diameter of inhibition zone [15] of 14 mm.
Compound `CCCCCC(=O)N1C[C@H]([C@H](C)Cn2nnc(C(=O)OC)c2C(=O)OC)C1=O` has a Diameter of inhibition zone (Bacteroides fragilis [1]) of 65 mm, a Diameter of inhibition zone (Staphylococcus aureus [3]) of 0 mm and a Diameter of inhibition zone (Staphylococcus aureus [4]) of 0 mm. The Diameter of inhibition zone [5] was 0 mm.
For `CCCC(=O)N1C[C@H]([C@H](C)COC(C)=O)C1=O`, the MIC [7] was > 128 µg/mL, the Diameter of inhibition zone (Bacteroides fragilis [1]) was 78 mm and the MIC (Bacteroides fragilis [8]) was > 128 µg/mL. The MIC [9] was 64 µg/mL (≈ 265 µM), the MIC [10] was 64 µg/mL (≈ 265 µM) and the MIC (Clostridium perfringens [11]) was > 128 µg/mL. For the same compound, the Diameter of inhibition zone (Clostridium perfringens [16]) was 33 mm, the MIC (Fusobacterium nucleatum) was 64 µg/mL (≈ 265 µM) and the MIC [12] was 64 µg/mL (≈ 265 µM). For the same compound, the MIC (Cutibacterium acnes) was 32 µg/mL (≈ 133 µM), the Diameter of inhibition zone (Staphylococcus aureus [3]) was 0 mm and the Diameter of inhibition zone (Staphylococcus aureus [4]) was 0 mm. The Diameter of inhibition zone [5] was 0 mm.
With `CCC[C@@H]1C[C@@H](C(=O)N[C@@H]([C@H]2O[C@H](SC)[C@H](O)[C@@H](O)[C@H]2O)[C@H](C)Cl)N(C)C1` [CLINDAMYCIN] the MIC [7] was < 0.12 µg/mL, the Diameter of inhibition zone (Bacteroides fragilis [1]) was 30 mm and the MIC (Bacteroides fragilis [8]) was < 0.12 µg/mL. The MIC [9] was 4 µg/mL (≈ 9.41 µM), the MIC [10] was < 0.12 µg/mL and the MIC (Clostridium perfringens [11]) was < 0.12 µg/mL. For the same compound, the Diameter of inhibition zone (Clostridium perfringens [2]) was 24 mm, the MIC (Fusobacterium nucleatum) was < 0.12 µg/mL and the “Diameter of inhibition zone” value (Mycobacterium avium) was “Trace”. The MIC [12] was 1 µg/mL (≈ 2.35 µM), the MIC (Cutibacterium acnes) was < 0.12 µg/mL and the Diameter of inhibition zone (Staphylococcus aureus [3]) was 0 mm. It also gave a Diameter of inhibition zone (Staphylococcus aureus [4]) of 0 mm and a Diameter of inhibition zone [5] of 22 mm.
Compound `CCCCCC(=O)N1C/C(=C(\C)COC(C)=O)C1=O` has a Diameter of inhibition zone (Bacteroides fragilis [1]) of 30 mm, a Diameter of inhibition zone (Clostridium perfringens [2]) of 0 mm and a Diameter of inhibition zone (Staphylococcus aureus [3]) of 19 mm. The Diameter of inhibition zone (Staphylococcus aureus [4]) was 12 mm and the Diameter of inhibition zone [5] was 7 mm.
Compound `CCCCCC(=O)N1C[C@H]([C@H](C)COC(C)=O)C1=O` has a Diameter of inhibition zone (Staphylococcus aureus [3]) of 36 mm, a Diameter of inhibition zone (Staphylococcus aureus [4]) of 9 mm and a Diameter of inhibition zone [5] of 23 mm.
For `CCCC(=O)OC/C(C)=C1/CN(C(=O)c2ccccc2)C1=O`, the Diameter of inhibition zone (Bacteroides fragilis [1]) was 0 mm, the “Diameter of inhibition zone” value (Clostridium perfringens [17]) was “Trace” and the “Diameter of inhibition zone” value (Mycobacterium avium) was “Trace”. For the same compound, the Diameter of inhibition zone (Staphylococcus aureus [3]) was 16 mm, the Diameter of inhibition zone (Staphylococcus aureus [4]) was 0 mm and the Diameter of inhibition zone [5] was 0 mm.
